The values below come from patent US20230310406A1 (priority 2020, published 2023).

Assay [1] relates to Sigma opiate sites. The experiment in a line: in vitro affinity at sigma opiate sites. It is filed as binding.
Assay [2] concerns the target serotonin receptor 1B (Homo sapiens, UniProt P28222). The experiment in a line: in vitro antagonistic activity at serotonin receptor 1B. It is filed as biochemical.
Assay [3] deals with T1, adrenergic receptor Alpha 1B (Homo sapiens, UniProt P35368).
T1 sequence (P35368 1-520): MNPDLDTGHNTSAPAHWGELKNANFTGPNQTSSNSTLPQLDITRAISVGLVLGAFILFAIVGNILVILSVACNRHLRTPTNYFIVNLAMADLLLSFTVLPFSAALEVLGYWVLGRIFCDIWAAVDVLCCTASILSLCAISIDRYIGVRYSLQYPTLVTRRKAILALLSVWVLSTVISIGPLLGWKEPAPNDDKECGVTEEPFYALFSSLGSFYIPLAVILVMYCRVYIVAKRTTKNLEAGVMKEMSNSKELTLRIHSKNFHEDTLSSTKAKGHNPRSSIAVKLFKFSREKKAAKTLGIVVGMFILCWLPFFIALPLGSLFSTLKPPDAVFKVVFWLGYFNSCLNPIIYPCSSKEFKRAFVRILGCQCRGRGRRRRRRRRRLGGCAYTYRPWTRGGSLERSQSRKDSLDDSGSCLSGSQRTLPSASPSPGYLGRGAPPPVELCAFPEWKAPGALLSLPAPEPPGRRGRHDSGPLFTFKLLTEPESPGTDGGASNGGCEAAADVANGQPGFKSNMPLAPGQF
The assay can be described thus: in vitro antagonistic activity at adrenergic Alpha 1B. It is filed as biochemical.

Assay [4] has as its target T2, cholinergic muscarinic receptor 1 (Homo sapiens, UniProt P11229).
T2 sequence (P11229 1-460): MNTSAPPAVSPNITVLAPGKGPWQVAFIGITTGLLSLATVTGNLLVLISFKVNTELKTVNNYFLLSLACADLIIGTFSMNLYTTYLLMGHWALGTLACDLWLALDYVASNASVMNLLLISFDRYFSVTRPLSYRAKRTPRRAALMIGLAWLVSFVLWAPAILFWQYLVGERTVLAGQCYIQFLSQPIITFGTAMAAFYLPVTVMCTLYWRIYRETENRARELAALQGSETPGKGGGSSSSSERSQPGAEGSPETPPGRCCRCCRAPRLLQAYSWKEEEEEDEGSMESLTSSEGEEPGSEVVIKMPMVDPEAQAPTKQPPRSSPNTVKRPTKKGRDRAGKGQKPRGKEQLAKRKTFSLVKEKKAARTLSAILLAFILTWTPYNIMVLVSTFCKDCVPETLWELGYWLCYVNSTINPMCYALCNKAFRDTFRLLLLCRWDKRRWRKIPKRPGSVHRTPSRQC
The assay can be described thus: in vitro antagonistic activity at muscarinic receptor 1. It is filed as biochemical.

Assay [5] addresses T3, adrenergic receptor Alpha 2B (Homo sapiens, UniProt P18089).
T3 sequence (P18089 1-450): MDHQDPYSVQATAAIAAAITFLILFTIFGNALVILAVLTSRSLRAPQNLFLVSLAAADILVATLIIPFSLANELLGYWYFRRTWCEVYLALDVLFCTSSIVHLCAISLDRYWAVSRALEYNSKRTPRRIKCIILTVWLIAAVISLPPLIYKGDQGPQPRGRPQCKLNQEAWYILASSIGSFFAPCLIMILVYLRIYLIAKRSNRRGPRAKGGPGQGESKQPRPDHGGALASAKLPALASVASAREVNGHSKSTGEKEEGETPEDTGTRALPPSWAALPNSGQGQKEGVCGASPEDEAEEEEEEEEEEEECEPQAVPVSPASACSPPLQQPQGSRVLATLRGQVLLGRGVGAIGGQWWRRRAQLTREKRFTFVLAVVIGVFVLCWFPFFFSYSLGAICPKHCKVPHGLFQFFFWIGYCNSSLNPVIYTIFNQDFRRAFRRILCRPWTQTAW
The assay can be described thus: in vitro antagonistic activity at adrenergic Alpha 2B. It is filed as biochemical.

The target in assay [6] is T4, adrenergic receptor Alpha 2C (Homo sapiens, UniProt P18825).
T4 sequence (P18825 1-462): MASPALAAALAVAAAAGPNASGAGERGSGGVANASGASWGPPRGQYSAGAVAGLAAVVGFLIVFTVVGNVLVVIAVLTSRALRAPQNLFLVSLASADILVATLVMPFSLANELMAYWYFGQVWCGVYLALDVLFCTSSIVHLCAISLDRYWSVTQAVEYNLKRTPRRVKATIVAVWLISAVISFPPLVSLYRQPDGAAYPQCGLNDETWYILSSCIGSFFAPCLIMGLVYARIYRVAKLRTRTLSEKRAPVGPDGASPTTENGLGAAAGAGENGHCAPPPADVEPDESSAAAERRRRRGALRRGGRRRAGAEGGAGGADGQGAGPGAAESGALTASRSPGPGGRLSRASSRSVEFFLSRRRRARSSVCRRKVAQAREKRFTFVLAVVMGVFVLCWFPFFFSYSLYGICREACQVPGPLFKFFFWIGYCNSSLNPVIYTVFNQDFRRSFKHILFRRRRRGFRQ
The assay can be described thus: in vitro antagonistic activity at adrenergic Alpha 2C. It is filed as biochemical.

Assay [7] has as its target Mu (MOP) receptor (Homo sapiens, UniProt P35372). It is filed as biochemical.
In assay [8] the target is histamine H1 receptor (Homo sapiens, UniProt P35367). The experiment in a line: in vitro antagonistic activity at histamine H1. The format is biochemical.
Chain of histamine H1 receptor (P35367 whole entry, species assumed): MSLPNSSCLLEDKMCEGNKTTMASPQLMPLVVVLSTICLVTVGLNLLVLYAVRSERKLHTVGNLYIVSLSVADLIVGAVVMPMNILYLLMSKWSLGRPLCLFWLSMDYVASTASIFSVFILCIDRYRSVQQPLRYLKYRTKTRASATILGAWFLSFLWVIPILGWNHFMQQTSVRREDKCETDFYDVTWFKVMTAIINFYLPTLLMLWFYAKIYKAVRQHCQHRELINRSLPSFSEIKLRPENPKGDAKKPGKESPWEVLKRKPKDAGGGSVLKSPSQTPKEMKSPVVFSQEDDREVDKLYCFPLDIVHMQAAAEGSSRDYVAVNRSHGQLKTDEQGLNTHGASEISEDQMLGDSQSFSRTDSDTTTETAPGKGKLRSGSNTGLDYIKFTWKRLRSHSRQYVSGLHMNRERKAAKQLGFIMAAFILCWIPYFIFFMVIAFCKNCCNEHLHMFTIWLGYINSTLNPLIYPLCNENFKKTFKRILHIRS
Assay [9] has as its target T5, cholinergic muscarinic receptor 5 (Homo sapiens, UniProt P08912).
T5 sequence (P08912 1-532): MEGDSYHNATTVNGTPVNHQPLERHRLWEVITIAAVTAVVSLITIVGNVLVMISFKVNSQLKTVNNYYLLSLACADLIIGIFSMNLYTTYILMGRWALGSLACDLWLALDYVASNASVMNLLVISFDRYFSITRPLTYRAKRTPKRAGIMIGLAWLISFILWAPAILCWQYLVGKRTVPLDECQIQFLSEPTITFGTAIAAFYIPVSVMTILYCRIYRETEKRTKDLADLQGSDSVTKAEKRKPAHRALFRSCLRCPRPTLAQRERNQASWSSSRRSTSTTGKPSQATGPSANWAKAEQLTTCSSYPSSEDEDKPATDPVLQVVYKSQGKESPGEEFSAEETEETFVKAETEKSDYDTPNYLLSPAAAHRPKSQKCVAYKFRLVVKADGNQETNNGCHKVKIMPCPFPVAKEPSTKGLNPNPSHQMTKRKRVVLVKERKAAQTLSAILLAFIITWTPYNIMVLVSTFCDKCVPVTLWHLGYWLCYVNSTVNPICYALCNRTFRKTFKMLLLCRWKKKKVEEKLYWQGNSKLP
The experiment in a line: in vitro antagonistic activity at muscarinic receptor 5. It is filed as biochemical.

For assay [10], the target named is T6, dopamine D4 receptor (Homo sapiens, UniProt P21917).
T6 sequence (P21917 1-419): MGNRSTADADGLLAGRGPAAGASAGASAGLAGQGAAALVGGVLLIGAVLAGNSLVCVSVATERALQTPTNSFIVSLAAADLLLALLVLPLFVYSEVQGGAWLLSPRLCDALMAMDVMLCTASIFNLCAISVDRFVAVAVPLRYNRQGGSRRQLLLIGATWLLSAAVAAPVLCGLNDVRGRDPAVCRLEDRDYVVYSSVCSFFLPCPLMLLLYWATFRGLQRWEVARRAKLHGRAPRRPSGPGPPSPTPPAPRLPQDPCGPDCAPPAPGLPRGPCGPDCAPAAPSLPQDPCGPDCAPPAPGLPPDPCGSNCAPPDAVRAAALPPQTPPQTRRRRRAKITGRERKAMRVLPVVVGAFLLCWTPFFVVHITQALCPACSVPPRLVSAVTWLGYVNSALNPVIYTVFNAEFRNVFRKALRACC
The assay can be described thus: in vitro antagonistic activity at dopamine D4. It is filed as biochemical.

Assay [11] deals with T7, serotonin receptor 1A (Homo sapiens, UniProt P08908).
T7 sequence (P08908 1-422): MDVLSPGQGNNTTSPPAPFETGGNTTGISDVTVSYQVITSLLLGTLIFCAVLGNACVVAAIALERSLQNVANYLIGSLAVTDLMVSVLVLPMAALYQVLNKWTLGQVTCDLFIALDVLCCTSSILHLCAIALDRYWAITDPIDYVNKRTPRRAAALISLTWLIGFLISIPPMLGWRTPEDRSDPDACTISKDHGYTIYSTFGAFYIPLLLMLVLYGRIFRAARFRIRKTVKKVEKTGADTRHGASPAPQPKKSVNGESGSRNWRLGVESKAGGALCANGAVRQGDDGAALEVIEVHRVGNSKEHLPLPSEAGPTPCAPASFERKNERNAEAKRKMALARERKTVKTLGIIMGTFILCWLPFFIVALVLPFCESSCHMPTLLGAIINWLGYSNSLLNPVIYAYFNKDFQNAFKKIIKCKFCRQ
The experiment in a line: in vitro antagonistic activity at serotonin receptor 1A. It is filed as biochemical.

Assay [12] deals with ORL1 (NOP) receptor (Homo sapiens, UniProt P41146). The assay can be described thus: in vitro pharmacology at ORL1 receptor. It is filed as biochemical.
Chain of ORL1 (NOP) receptor (P41146 whole entry): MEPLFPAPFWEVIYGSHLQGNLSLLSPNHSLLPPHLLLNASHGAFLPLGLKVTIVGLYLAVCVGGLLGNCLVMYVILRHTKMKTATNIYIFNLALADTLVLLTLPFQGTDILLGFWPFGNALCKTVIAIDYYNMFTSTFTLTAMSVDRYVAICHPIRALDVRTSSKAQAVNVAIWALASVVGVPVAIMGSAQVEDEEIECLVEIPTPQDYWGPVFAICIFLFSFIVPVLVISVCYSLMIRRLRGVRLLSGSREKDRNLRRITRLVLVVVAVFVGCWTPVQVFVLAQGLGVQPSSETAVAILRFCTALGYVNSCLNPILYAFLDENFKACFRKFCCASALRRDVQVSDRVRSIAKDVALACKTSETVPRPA
Assay [13] concerns the target Kappa (KOP) receptor (Homo sapiens, UniProt P41145). The format is biochemical.
The target of assay [14] is T8, cholinergic muscarinic receptor 4 (Homo sapiens, UniProt P08173).
T8 sequence (P08173 1-479): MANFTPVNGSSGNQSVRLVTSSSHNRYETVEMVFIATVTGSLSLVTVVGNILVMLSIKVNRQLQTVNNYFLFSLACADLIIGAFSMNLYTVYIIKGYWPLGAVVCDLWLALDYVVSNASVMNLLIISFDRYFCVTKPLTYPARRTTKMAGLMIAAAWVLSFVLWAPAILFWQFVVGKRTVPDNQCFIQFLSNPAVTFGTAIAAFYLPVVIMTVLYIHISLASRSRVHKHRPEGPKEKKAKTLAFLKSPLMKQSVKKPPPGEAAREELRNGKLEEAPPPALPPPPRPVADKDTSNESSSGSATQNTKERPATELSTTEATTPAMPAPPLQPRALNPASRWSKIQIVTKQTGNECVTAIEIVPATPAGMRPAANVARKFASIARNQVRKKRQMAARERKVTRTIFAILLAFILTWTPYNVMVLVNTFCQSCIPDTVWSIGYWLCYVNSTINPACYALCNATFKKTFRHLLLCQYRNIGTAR
The assay can be described thus: in vitro antagonistic activity at muscarinic receptor 4. The format is biochemical.

The target of assay [15] is cholinergic muscarinic receptor 3 (Homo sapiens, UniProt P20309). The assay can be described thus: in vitro antagonistic activity at muscarinic receptor 3. It is filed as biochemical.
Chain of cholinergic muscarinic receptor 3 (P20309 whole entry): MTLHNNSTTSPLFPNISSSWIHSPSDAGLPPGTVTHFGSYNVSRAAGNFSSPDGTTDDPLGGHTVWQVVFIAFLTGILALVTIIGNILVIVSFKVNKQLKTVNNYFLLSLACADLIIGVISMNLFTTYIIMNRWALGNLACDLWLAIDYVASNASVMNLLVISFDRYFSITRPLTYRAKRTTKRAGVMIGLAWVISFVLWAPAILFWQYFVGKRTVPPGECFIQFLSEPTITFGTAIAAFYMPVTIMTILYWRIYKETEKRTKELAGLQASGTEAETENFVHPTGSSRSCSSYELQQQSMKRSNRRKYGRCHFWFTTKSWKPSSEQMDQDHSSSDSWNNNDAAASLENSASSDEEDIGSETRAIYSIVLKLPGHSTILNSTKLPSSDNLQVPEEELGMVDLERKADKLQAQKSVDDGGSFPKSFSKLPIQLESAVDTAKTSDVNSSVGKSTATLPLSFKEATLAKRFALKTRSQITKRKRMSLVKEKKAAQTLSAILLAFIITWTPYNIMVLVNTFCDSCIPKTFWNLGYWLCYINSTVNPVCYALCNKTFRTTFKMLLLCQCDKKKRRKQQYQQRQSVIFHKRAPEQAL

Where two headings read alike, the source gives them in different places.

Chain of Kappa (KOP) receptor (P41145 whole entry): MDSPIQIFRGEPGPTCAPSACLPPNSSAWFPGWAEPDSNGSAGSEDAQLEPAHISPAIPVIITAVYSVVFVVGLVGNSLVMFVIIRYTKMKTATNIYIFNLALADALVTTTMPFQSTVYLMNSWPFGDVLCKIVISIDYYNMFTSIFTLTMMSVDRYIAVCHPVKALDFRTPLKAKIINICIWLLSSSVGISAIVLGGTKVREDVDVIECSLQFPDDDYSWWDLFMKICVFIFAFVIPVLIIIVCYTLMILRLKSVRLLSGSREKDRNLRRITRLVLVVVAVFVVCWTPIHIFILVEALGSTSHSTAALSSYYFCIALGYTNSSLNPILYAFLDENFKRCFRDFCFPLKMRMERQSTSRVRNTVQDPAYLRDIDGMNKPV
Chain of serotonin receptor 1B (P28222 whole entry): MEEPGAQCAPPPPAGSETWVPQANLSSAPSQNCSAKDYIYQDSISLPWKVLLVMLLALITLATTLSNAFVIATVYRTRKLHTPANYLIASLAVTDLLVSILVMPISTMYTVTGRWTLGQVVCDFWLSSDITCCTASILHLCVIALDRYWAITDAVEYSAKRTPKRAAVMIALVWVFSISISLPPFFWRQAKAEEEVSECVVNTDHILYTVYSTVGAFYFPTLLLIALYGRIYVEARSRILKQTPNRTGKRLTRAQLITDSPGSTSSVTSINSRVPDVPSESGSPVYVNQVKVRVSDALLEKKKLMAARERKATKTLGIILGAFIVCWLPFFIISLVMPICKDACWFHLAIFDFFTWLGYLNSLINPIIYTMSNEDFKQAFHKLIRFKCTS
Chain of Mu (MOP) receptor (P35372 whole entry): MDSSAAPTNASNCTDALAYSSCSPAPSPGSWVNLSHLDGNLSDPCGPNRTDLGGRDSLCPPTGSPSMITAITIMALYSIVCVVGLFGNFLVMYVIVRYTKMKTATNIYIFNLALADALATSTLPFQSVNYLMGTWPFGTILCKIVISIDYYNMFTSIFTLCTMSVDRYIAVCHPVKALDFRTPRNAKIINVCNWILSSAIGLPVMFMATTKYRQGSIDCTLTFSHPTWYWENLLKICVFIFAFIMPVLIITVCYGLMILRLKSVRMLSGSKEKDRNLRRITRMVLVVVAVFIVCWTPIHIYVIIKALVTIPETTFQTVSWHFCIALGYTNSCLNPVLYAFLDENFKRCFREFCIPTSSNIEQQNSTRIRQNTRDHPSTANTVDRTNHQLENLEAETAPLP

For `C=CCN1CC[C@]23c4c5ccc(O)c4O[C@H]2C(=O)CC[C@@]3(O)[C@H]1C5` [Naloxone], the “Receptor Sigma: affinity” value in [1] is recorded as “Weak”.

For `O=C1CC[C@@]2(O)[C@H]3Cc4ccc(O)c5c4[C@@]2(CCN3CC2CC2)[C@H]1O5` [Naltrexone], in assay [1], the “Receptor Sigma: affinity” value was “Weak”.

For `CCC(=O)NC1CC(C)N(CCc2ccccc2)CC1C` (stereo not drawn) [Compound 1, 1-(2-phenylethyl)2,5-dimethyl-4-propionilaminopiperidine], the “activity at serotonin receptor 1B” value in assay [2] is given as “antagonistic activity”. In addition, in assay [3], the “activity at adrenergic receptor Alpha 1B” value was “antagonistic activity”. Further, the “activity at cholinergic muscarinic receptor 1” value in assay [4] was “antagonistic activity”. In addition, the “activity at adrenergic receptor Alpha 2B” value in [5] was “antagonistic activity”. In addition, the “activity at adrenergic receptor Alpha 2C” value in assay [6] is given as “antagonistic activity”. The “Receptor Mu (MOP): mode of action” value in assay [7] was “partial agonist”. Also, in assay [8], the “activity at histamine H1 receptor” value is given as “antagonistic activity”. Further, in assay [9], the “activity at cholinergic muscarinic receptor 5” value is listed as “antagonistic activity”. The “activity at dopamine D4 receptor” value in assay [10] was “antagonistic activity”. Besides, in [11], the “activity at serotonin receptor 1A” value is “antagonistic activity”. The “Receptor Sigma: affinity” value in assay [1] (listed as compound 1) is reported as “activity”. Also, the “Receptor ORL1 (NOP): mode of action” value in assay [12] was “Antagonist”; in assay [12] (listed as compound 1) it was “antagonist”. In assay [13], the “Receptor Kappa (KOP): mode of action” value was “Antagonist”. The “activity at cholinergic muscarinic receptor 4” value in assay [14] is reported as “antagonistic activity”. For the same compound, the “activity at cholinergic muscarinic receptor 3” value in assay [15] is given as “antagonistic activity”.
